Experiment [1] has as its target T1, Chromobox protein homolog 7 (Homo sapiens) (UniProt O95931).
T1 sequence (whole entry): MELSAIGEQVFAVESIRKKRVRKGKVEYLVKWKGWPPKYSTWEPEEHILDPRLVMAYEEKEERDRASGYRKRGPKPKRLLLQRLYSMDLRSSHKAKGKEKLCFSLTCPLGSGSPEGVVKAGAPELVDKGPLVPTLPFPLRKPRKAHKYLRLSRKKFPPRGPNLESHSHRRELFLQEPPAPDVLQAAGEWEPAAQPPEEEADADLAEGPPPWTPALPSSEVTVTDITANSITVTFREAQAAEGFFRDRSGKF
The experiment can be described thus: (§1) Displacement of FITC-labeled H3K27me3 from CBX7 (unknown origin) after 15 mins by fluorescence polarization assay.

The target in experiment [2] is T2, Chromobox protein homolog 7 (Homo sapiens, UniProt O95931).
T2 sequence (O95931 whole entry): T1 sequence (whole entry)
The experiment is described as §1.

In experiment [3] the target is T2, Chromobox protein homolog 7. Nature of the experiment: Binding affinity to CBX7 (unknown origin) by isothermal titration calorimetry assay. On the technique in general: Isothermal titration calorimetry measures the heat released or taken up as one component is titrated into another.
In experiment [4] the target is T3, Chromobox protein homolog 8 (Homo sapiens, UniProt Q9HC52).
T3 sequence (Q9HC52 whole entry): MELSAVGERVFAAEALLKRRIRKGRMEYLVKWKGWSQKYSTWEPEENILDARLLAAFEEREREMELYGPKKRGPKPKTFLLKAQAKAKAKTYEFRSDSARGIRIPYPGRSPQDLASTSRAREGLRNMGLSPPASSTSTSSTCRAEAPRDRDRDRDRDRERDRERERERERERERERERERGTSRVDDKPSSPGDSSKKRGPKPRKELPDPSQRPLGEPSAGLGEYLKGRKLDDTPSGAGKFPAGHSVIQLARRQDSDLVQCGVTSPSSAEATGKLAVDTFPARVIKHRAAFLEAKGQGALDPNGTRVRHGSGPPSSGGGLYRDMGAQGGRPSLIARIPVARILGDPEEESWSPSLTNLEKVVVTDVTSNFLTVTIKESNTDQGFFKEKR
The experiment can be described thus: Binding affinity to CBX8 (unknown origin) by isothermal titration calorimetry assay.

Experiment [5] addresses T4, E3 SUMO-protein ligase CBX4 (Homo sapiens, UniProt O00257).
T4 sequence (O00257 whole entry): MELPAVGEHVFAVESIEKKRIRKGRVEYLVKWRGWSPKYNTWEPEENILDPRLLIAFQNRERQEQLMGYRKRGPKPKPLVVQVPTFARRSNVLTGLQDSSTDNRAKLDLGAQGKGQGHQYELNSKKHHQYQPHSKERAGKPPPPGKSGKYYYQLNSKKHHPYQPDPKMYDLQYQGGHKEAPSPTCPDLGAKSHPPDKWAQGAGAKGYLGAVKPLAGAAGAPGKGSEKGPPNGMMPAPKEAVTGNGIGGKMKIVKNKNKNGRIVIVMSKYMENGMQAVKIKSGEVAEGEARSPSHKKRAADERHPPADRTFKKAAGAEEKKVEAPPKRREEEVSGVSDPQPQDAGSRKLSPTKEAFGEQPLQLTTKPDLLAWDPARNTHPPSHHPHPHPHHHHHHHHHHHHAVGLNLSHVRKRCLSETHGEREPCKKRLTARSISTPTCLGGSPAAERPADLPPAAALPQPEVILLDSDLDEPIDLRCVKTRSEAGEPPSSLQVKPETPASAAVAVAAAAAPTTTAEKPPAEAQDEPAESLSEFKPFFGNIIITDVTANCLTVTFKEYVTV
Nature of the experiment: Binding affinity to CBX4 (unknown origin) by isothermal titration calorimetry assay.

The target of experiment [6] is Chromobox protein homolog 1 (Homo sapiens, UniProt P83916). Nature of the experiment: Binding affinity to CBX1 (unknown origin) by isothermal titration calorimetry assay.

Active and inactive are the calls of the source. No cut-off for these calls is given here. Starred links: 1 amine or outer side, 2 acyl side, 3 side chain; linkers in the order of their positions; H or OH if unused. Non-standard residues stand in square brackets, D forms with d. Residues, ends and D or L forms follow the SMILES beside them. *: point of attachment. Benzenesulfonyl(4-OMe) = COc1ccc(S(=O)(=O)*)cc1; Benzoyl(4-CO2Me) = COC(=O)c1ccc(C(=O)*)cc1; Lys(Me3) = C[N+](C)(C)CCCC[C@H](N)C(=O)O; Benzoyl(4-Br) = O=C(c1ccc(Br)cc1)*; Ethylenediamine = C(CN[*:2])N[*:1]; Gly(cPent) = N[C@H](C(=O)O)C1CCCC1; X3 = COC(=O)c1ccc(S(=O)(=O)*)cc1; Phg = N[C@H](C(=O)O)c1ccccc1; Tos = Cc1ccc(S(=O)(=O)*)cc1; NHCH(CH2OH)2 = OCC(CO)N*; Nle = CCCC[C@H](N)C(=O)O; Boc = CC(C)(C)OC(=O)*; NHPr = CCCN* Some results are limits rather than exact numbers.

In general, IC50 refers to the point on the concentration scale where inhibition reaches its midpoint. Read a high IC50 as a need for much substance. A word on the Kd: it is the concentration at which binding is half-saturated. Low values mean higher affinity, high ones lower affinity.

Chromobox protein homolog 1, sequence (P83916 whole entry): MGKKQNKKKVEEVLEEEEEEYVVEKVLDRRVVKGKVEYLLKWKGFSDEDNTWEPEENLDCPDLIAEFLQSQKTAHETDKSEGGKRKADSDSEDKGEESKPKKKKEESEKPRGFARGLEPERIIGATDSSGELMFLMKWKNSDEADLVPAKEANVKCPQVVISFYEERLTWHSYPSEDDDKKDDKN

Take Ac-FALKS-NH2: in experiment [1], the inhibition entry is “inactive”.

Take `CC(=O)N[C@@H](Cc1ccccc1)C(=O)N[C@@H](C)C(=O)N[C@@H](CC(C)C)C(=O)N[C@@H](CCCC[N+](C)(C)C)C(=O)N[C@@H](CO)C(N)=O`: the IC50 in experiment [2] turned out to be 11 µM. Besides, the Kd worked out at 2 µM in experiment [3], 14.2 µM in experiment [4], 3.7 µM in experiment [5] and 43 µM in experiment [6].

For `COC(=O)c1ccc(C(=O)N[C@@H](Cc2ccccc2)C(=O)N[C@@H](C)C(=O)N[C@H](C(=O)N[C@@H](CCCC[N+](C)(C)C)C(=O)N[C@@H](CO)C(N)=O)C2CCCC2)cc1` ({Benzoyl(4-CO2Me)}-FA[Gly(cPent)][Lys(Me3)]S-NH2), the figures for the Kd in experiment [3] and in experiment [4] were 0.2 µM and 1.78 µM, respectively.

In turn, `CC(=O)N[C@@H](Cc1ccccc1)C(=O)N[C@@H](C)C(=O)N[C@@H](Cc1ccc(O)cc1)C(=O)N[C@@H](CCCC[N+](C)(C)C)C(=O)N[C@@H](CO)C(N)=O` (Ac-FAY[Lys(Me3)]S-NH2) had a Kd in experiment [4] of 12.3 µM.

With `CC(C)C[C@H](NC(=O)[C@H](C)NC(=O)[C@H](Cc1ccccc1)NC(=O)c1ccc(Br)cc1)C(=O)N[C@@H](CCCC[N+](C)(C)C)C(=O)N[C@@H](CO)C(N)=O` ({Benzoyl(4-Br)}-FAL[Lys(Me3)]S-NH2), the IC50 in experiment [2] came out at 4.6 µM. In addition, the equilibrium dissociation constant (Kd) was 0.28 µM in experiment [3] and 1.5 µM in experiment [4].

With `COC(=O)c1ccc(C(=O)N[C@@H](Cc2ccccc2)C(=O)N[C@@H](C)C(=O)N[C@H](C(=O)N[C@@H](CCCC[N+](C)(C)C)C(=O)NC(CO)CO)C2CCCC2)cc1` ({Benzoyl(4-CO2Me)}-FA[Gly(cPent)][Lys(Me3)]-{NHCH(CH2OH)2}), the equilibrium dissociation constant (Kd) was 0.2 µM in experiment [3], 1.89 µM in experiment [4], 0.29 µM in experiment [5] and greater than 500 µM in experiment [6].

Consider `Cc1ccc(S(=O)(=O)NCC(=O)N[C@@H](C)C(=O)N[C@@H](CC(C)C)C(=O)N[C@@H](CCCC[N+](C)(C)C)C(=O)N[C@@H](CO)C(N)=O)cc1` (Tos-GAL[Lys(Me3)]S-NH2), for which the IC50 in experiment [2] stood at 34 µM.

Compound `CC(C)C[C@H](NC(=O)[C@H](C)NCc1ccc(C(=O)O)cc1)C(=O)N[C@@H](CCCC[N+](C)(C)C)C(=O)N[C@@H](CO)C(N)=O` gave an IC50 in experiment [2] greater than 2000 µM.

The compound `CC(=O)N[C@@H](Cc1ccccc1)C(=O)N[C@@H](C)C(=O)N[C@@H](CC(C)C)C(=O)N[C@@H](CCCC[N+](C)(C)C)C(=O)N[C@H](CO)C(N)=O` yielded an IC50 in experiment [2] of 9 µM. Moreover, the equilibrium dissociation constant (Kd) in experiment [3] is 5.4 µM; in experiment [4] it was 15 µM.

`COc1ccc(S(=O)(=O)N[C@@H](C)C(=O)N[C@@H](CC(C)C)C(=O)N[C@@H](CCCC[N+](C)(C)C)C(=O)N[C@@H](CO)C(N)=O)cc1` ({Benzenesulfonyl(4-OMe)}-AL[Lys(Me3)]S-NH2) came in with an IC50 in experiment [2] greater than 250 µM.

As to `C[C@H](NC(=O)[C@H](Cc1ccccc1)NC(=O)c1ccc(Br)cc1)C(=O)N[C@H](C(=O)N[C@@H](CCCC[N+](C)(C)C)C(=O)NCCN)C1CCCC1` ({Benzoyl(4-Br)}-FA[Gly(cPent)][Lys(Me3)]-Ethylenediamine), the Kd in experiment [3] is 0.22 µM; in experiment [4], 0.48 µM.

For `COC(=O)c1ccc(S(=O)(=O)N[C@@H](Cc2ccccc2)C(=O)N[C@@H](C)C(=O)N[C@@H](CC(C)C)C(=O)N[C@@H](CCCC[N+](C)(C)C)C(=O)N[C@@H](CO)C(N)=O)cc1` (X3-FAL[Lys(Me3)]S-NH2), the IC50 in experiment [2] was 57 µM. This lies in the double-digit micromolar range.

`CC(=O)N[C@H](C(=O)N[C@@H](C)C(=O)N[C@@H](CC(C)C)C(=O)N[C@@H](CCCC[N+](C)(C)C)C(=O)N[C@@H](CO)C(N)=O)c1ccccc1` (Ac-[Phg]AL[Lys(Me3)]S-NH2) showed an IC50 in experiment [2] of 26 µM.

In experiment [2], `CC(=O)N[C@@H](Cc1ccccc1)C(=O)N[C@@H](C)C(=O)N[C@H](C(=O)N[C@@H](CCCC[N+](C)(C)C)C(=O)N[C@@H](CO)C(N)=O)[C@@H](C)O` (Ac-FAT[Lys(Me3)]S-NH2) yielded a half-inhibitory concentration (IC50) of 35 µM. This IC50 and that of the compound before are within 1.5-fold of each other.

As for `C[C@H](NC(=O)Cc1ccccc1)C(=O)N[C@H](C(=O)N[C@@H](CCCC[N+](C)(C)C)C(=O)NC(CO)CO)C1CCCC1`, the Kd in experiment [3] stood at 4.1 µM; in experiment [4] it was 15 µM.

On to `CC(=O)N[C@@H](Cc1ccccc1)C(=O)N[C@@H](C)C(=O)N[C@@H](CC(C)C)C(=O)N[C@@H](CCCC[N+](C)(C)C)C(=O)NCCNC(=O)OC(C)(C)C` (Ac-FAL[Lys(Me3)]-{Ethylenediamine-Boc}), for which the IC50 in experiment [2] amounted to 105 µM.

In experiment [2], `CC(=O)N[C@@H](Cc1ccccc1)C(=O)N[C@@H](C)C(=O)N[C@@H](Cc1ccccc1)C(=O)N[C@@H](CCCC[N+](C)(C)C)C(=O)N[C@@H](CO)C(N)=O` (Ac-FAF[Lys(Me3)]S-NH2) gave an IC50 of 10.3 µM. This IC50 is about 10-fold lower than that of the compound before.

Regarding `CC(=O)N[C@@H](Cc1ccccc1)C(=O)N[C@@H](C)C(=O)N[C@@H](CC(C)C)C(=O)N[C@@H](CCCC[N+](C)(C)C)C(=O)N[C@H](CO)C(=O)O`, the half-inhibitory concentration (IC50) in experiment [2] was determined as 79 µM.

In experiment [2], `CC(=O)N[C@@H](Cc1ccccc1)C(=O)N[C@@H](C)C(=O)N[C@H](C(=O)N[C@@H](CCCC[N+](C)(C)C)C(=O)N[C@@H](CO)C(N)=O)C1CCCC1` (Ac-FA[Gly(cPent)][Lys(Me3)]S-NH2) yielded an IC50 of 6 µM.

Compound `CC(=O)N[C@@H](Cc1ccccc1)C(=O)N[C@@H](C)C(=O)N[C@@H](Cc1c[nH]c2ccccc12)C(=O)N[C@@H](CCCC[N+](C)(C)C)C(=O)N[C@@H](CO)C(N)=O` (Ac-FAW[Lys(Me3)]S-NH2) yielded an IC50 in experiment [2] of 13 µM.

For `CCCC[C@H](NC(=O)[C@H](C)NC(=O)[C@H](Cc1ccccc1)NC(C)=O)C(=O)N[C@@H](CCCC[N+](C)(C)C)C(=O)N[C@@H](CO)C(N)=O` (Ac-FA[Nle][Lys(Me3)]S-NH2), the IC50 in experiment [2] worked out at 23 µM.

Compound `CCCNC(=O)[C@H](CCCC[N+](C)(C)C)NC(=O)[C@H](CC(C)C)NC(=O)[C@H](C)NC(=O)[C@H](Cc1ccccc1)NC(C)=O` (Ac-FAL[Lys(Me3)]-NHPr) yielded an IC50 in experiment [2] of 102 µM.

The compound `CC[C@H](NC(=O)[C@H](Cc1ccccc1)NC(C)=O)C(=O)N[C@@H](CC(C)C)C(=O)N[C@@H](CCCC[N+](C)(C)C)C(=O)N[C@@H](CO)C(N)=O` registered an IC50 in experiment [2] of 39 µM. This IC50 lies about 2.6-fold lower than the previous one.

For the origin of these results see ChEMBL document CHEMBL3233003, “Chromodomain antagonists that target the polycomb-group methyllysine reader protein chromobox homolog 7 (CBX7)” (J Med Chem, 2014).
